Results as given in PMC6295285 (Pharmaceutical research, 2018).

How the values were obtained:
[1] = molecular target: T1, human OCT2 (Homo sapiens, UniProt O15244); experiment: Inhibition of metformin uptake in HEK-293 cells overexpressing hOCT2; settings: for Selectivity category hOCT2 versus hMATEs: comparison of IC50 for hOCT2, hMATE1, hMATE2-K; for Effect on hOCT2 activity at low concentrations (hOCT2-enhancer): low but clinically relevant concentrations (less than 10 μM)
T1 sequence (O15244 1-555): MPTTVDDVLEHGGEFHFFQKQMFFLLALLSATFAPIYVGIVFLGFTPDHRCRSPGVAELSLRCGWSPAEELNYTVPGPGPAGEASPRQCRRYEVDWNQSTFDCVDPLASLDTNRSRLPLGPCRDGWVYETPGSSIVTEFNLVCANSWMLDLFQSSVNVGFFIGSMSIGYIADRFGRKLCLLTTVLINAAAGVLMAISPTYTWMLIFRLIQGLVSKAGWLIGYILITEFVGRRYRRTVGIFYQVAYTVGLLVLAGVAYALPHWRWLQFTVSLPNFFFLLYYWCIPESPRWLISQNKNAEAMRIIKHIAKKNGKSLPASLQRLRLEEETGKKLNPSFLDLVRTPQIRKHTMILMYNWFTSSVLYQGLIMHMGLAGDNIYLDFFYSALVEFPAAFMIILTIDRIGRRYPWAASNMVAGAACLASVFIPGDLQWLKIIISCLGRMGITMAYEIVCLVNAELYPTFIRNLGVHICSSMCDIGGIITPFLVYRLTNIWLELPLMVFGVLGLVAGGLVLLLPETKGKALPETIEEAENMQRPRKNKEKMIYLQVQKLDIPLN

[2] = Metformin pharmacokinetics in mice with carvedilol; type: in vivo, mouse; settings: carvedilol 2 mg/kg; at 30, 45 and 60 min
[3] = test system: HEK-control cells; experiment: Cisplatin accumulation in HEK-control cells; type: cell-based, human; settings: carvedilol 10 μM + cisplatin 100 μM 2 h, then 22 h normal medium
[4] = test system: C57BL/6J mice; experiment: Cisplatin-induced nephrotoxicity in mice; type: in vivo, mouse; settings: 72 h
[5] = molecular target: T2, human MATE1 (Homo sapiens, UniProt Q96FL8); experiment: Inhibition of metformin uptake in HEK-293 cells overexpressing hMATE1; type: cell-based; settings: IC50 for inhibition of hMATE1, metformin 50 μM probe substrate, HEK293-hMATE1
T2 sequence (Q96FL8 1-570): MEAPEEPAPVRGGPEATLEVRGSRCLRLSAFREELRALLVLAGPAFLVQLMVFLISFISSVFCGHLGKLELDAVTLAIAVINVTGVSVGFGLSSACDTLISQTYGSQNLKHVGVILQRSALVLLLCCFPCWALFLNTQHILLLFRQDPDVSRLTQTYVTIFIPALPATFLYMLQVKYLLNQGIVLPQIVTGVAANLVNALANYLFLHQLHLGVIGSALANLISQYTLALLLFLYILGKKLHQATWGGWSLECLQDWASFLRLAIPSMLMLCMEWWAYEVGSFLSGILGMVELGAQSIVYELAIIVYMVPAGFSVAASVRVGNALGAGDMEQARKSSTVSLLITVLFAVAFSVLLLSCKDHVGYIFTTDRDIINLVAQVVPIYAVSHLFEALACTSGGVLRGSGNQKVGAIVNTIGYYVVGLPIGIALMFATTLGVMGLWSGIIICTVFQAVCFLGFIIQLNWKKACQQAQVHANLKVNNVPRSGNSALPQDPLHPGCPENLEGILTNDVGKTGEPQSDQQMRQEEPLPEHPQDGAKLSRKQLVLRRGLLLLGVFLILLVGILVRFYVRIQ

[6] = molecular target: T3, mouse Oct2 (Mus musculus, UniProt O70577); experiment: Inhibition of metformin uptake in HEK-293 cells overexpressing mouse Oct2; type: cell-based
T3 sequence (O70577 1-553): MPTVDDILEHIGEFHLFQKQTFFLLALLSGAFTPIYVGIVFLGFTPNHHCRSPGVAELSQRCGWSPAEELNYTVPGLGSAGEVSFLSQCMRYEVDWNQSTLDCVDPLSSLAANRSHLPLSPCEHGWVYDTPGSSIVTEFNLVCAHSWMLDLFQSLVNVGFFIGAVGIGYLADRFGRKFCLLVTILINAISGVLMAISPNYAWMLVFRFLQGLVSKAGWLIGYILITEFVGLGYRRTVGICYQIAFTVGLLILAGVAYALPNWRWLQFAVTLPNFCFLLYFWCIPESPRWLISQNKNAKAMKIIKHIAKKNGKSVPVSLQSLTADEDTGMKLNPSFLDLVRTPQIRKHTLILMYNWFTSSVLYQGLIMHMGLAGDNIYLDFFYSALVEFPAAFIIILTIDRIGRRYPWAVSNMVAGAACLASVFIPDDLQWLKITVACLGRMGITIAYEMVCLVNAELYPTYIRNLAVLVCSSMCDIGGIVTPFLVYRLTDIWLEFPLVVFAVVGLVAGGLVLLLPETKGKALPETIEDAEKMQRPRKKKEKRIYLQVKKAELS

[7] = test system: HEK-hOCT2 cells; experiment: Cisplatin accumulation in HEK-hOCT2 cells; type: cell-based, human; settings: carvedilol 10 μM + cisplatin 100 μM 2 h, then 22 h normal medium
[8] = cited from earlier work
[9] = molecular target: T4, mouse Oct1 (Mus musculus, UniProt O08966); experiment: Inhibition of metformin uptake in HEK-293 cells overexpressing mouse Oct1; type: cell-based
T4 sequence (O08966 1-556): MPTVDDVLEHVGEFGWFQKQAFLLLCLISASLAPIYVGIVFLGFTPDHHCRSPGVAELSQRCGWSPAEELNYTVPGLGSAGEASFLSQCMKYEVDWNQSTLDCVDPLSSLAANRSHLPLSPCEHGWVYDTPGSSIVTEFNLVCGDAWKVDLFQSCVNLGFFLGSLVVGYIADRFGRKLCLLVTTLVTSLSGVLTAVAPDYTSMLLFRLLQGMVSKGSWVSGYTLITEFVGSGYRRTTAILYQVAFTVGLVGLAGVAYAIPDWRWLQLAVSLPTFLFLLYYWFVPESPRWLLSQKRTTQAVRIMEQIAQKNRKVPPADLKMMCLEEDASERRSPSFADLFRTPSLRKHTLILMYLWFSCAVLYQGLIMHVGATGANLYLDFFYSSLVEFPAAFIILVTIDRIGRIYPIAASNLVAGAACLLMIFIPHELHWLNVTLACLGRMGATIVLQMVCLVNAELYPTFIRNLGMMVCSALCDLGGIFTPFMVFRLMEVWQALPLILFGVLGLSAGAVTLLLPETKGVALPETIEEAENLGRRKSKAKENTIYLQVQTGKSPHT

[10] = test system: HEK-hOCT2 cells; experiment: Cisplatin cytotoxicity, cell viability by CCK-8; type: cell-based, human; settings: carvedilol 10 μM + cisplatin 100 μM 2 h, then 22 h
[11] = molecular target: T5, mouse Mate1 (Mus musculus, UniProt Q8K0H1); experiment: Inhibition of metformin uptake in HEK-293 cells overexpressing mouse Mate1; type: cell-based
T5 sequence (Q8K0H1 1-567): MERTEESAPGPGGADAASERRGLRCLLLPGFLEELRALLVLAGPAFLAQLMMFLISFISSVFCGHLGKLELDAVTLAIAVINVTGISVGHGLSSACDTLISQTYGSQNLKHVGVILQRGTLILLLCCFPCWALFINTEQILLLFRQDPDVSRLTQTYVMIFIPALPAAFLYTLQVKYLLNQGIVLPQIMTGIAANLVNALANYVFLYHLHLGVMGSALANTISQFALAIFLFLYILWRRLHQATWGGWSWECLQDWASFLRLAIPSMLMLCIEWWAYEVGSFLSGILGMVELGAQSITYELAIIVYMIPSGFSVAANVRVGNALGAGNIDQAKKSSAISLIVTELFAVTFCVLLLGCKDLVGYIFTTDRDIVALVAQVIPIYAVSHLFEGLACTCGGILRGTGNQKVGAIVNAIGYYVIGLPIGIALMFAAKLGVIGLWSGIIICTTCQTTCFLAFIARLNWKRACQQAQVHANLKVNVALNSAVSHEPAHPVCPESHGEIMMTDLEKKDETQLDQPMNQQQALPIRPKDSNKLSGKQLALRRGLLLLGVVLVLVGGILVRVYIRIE

[12] = molecular target: T6, human OCT1 (Homo sapiens, UniProt O15245); experiment: Inhibition of metformin uptake in HEK-293 cells overexpressing hOCT1; type: cell-based
T6 sequence (O15245 1-554): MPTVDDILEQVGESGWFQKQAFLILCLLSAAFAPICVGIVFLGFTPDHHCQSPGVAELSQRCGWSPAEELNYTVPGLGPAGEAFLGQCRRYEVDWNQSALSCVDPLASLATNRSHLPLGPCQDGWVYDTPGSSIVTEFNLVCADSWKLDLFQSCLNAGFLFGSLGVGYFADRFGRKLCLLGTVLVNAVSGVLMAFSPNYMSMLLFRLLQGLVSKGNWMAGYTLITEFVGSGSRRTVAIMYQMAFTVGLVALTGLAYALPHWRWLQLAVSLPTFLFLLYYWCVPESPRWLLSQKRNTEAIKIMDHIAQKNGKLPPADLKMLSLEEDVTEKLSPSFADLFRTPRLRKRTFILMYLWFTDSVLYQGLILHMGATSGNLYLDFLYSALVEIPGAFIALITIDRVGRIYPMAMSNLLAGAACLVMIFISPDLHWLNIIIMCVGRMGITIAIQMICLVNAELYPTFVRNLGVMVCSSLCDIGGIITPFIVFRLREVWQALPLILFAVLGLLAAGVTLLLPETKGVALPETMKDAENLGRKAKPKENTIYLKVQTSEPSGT

[13] = carvedilol 2 mg/kg x2 + cisplatin 10 mg/kg

CC(C)C(=O)Nc1ccc([N+](=O)[O-])c(C(F)(F)F)c1 [Flutamide]
Selectivity category hOCT2 versus hMATEs [1]: selective hOCT2 inhibitors

CCCCOc1ccc(CC(=O)NO)cc1 [Bufexamac]
Selectivity category hOCT2 versus hMATEs [1]: selective hOCT2 inhibitors

CC(C)(C)NC(=O)[C@@H]1C[C@@H]2CCCC[C@@H]2CN1C[C@@H](O)[C@H](Cc1ccccc1)NC(=O)[C@H](CC(N)=O)NC(=O)c1ccc2ccccc2n1 [Saquinavir]
Effect on hOCT2-mediated metformin uptake at high concentrations [1]: could inhibit hOCT2-mediated metformin uptake | Effect on hOCT2 activity at low concentrations (hOCT2-enhancer) [1]: increase hOCT2 activity

CCC(C)n1ncn(-c2ccc(N3CCN(c4ccc(OCC5COC(Cn6cncn6)(c6ccc(Cl)cc6Cl)O5)cc4)CC3)cc2)c1=O (stereo not shown) [Itraconazole]
Effect on hOCT2-mediated metformin uptake at high concentrations [1]: could inhibit hOCT2-mediated metformin uptake | Effect on hOCT2 activity at low concentrations (hOCT2-enhancer) [1]: increase hOCT2 activity

C(=C\c1ccccc1)/CN1CCN(C(c2ccccc2)c2ccccc2)CC1 [Cimnasizine]
Effect on hOCT2-mediated metformin uptake at high concentrations [1]: could inhibit hOCT2-mediated metformin uptake | Effect on hOCT2 activity at low concentrations (hOCT2-enhancer) [1]: increase hOCT2 activity

COc1ccccc1OCCNCC(O)COc1cccc2[nH]c3ccccc3c12 (stereo not shown) [Carvedilol]
Plasma concentrations of metformin compared to vehicle [2]: significantly increased | Accumulation of cisplatin in control cells [3]: 3.87 ± 0.06 ppm/mg protein | Kidney histology (renal damage), co-administration [4, 13]: substantially ameliorated | Kim-1 gene transcripts in kidney, co-administration [4, 13]: almost be brought down to the normal base | Kidney histology, treatment-only group ([4]; carvedilol only): No visible morphological change | IC50 [5]: 103 µM | IC50 [6]: 23.1 µM | Accumulation of cisplatin in HEK-hOCT2 stable cells [7]: 3.77 ± 0.02 ppm/mg protein | Time to peak plasma concentration ([8]; after oral administration): 1—2 h | Oral bioavailability ([8]; human, oral): 24% | Plasma binding ([8]; mostly bound to albumin): approximately 95% | Terminal half-life ([8]; oral administration): 6—10 h | IC50 [9]: 2.8 µM | Selectivity category hOCT2 versus hMATEs [1]: selective hOCT2 inhibitors | Cell viability of cisplatin-treated HEK-hOCT2 cells with co-treatment [10]: significantly rescued | IC50 [11]: 67 µM | IC50 [12]: 6.4 µM
